For data set [1] the following is noted: native hormone; cited from earlier work. From the text: Gonadotropin-releasing hormone (GnRH) is a decapeptide released by hypothalamic neurons, which stimulates GnRH-mediated pituitary secretion of both luteinizing hormone (LH) and follicle-stimulating hormone (FSH). […] Goserelin, buserelin, and triptorelin are GnRH agonists, a relatively new class of drugs. The long-term administration of these agonists results in a significant decrease in estrogen and testosterone blood levels. ...

Data set [2] in a line: clinical. Particulars: male, human, in vivo, sc.
Protocol: (§1) A 1000 μL volume of blank plasma was placed in a 2 mL Eppendorf tube. Then, 10 μL of internal standard solution (50 μg/mL) was added to the tube, and the mixture was vortexed. An amount of 100 μL of the resulting sample was then transferred to another centrifuge tube, and 200 μL of methanol/deionized water/formic acid (60:40:0.08) mixture was added, followed by 500 μL of methanol. The sample was then centrifuged at 14,500 rpm for 15 min.
(§2) For the solid-phase extraction (SPE), the SPE cartridge was pre-treated with 1 mL methanol, followed by 1 mL of deionized water. The sample mixture was diluted with 500 μL of deionized water and gently loaded onto an SPE Oasis® HLB 1cc 30 mg cartridge (Waters Corporation, Milford, MA, USA). The SPE cartridge was washed with 1 mL deionized water, followed by 1 mL of methanol/deionized water (60:40) mixture. The sample was then eluted with 1 mL 0.1% formic acid (methanol solution) and evaporated to dryness (for 20 min) at 45 °C under a stream of nitrogen. The dry residue was then reconstituted with 100 μL of methanol/deionized water/formic acid (60:40:0.08) mixture.
(§3) The chromatographic separation was performed on a Jupiter® C18 column (5 μm, 50 × 4.6 mm 300 Å) (Phenomonex, Torrance, CA, USA). The mobile phase consisted of 0.1% v/v formic acid aqueous solution (solvent A) and 0.1% v/v formic acid in acetonitrile (solvent B). The mobile phase composition was changed gradually in a gradient elution (Table 5) with a constant flow rate of 1.2 mL/min. The temperature of the column oven was kept at 30 °C. After the sample preparation procedure, 30 μL of supernatant was injected into the LC-MS/MS system.
(§4) Detection was performed with triple quadruple tandem mass spectrometry in the positive ion mode (5 kW) using the MRM mode. Nitrogen was used as a nebulizer (3 L/h) and drying (20 L/h) gas. The desolvation temperature was set at 200 °C, and the source temperature was 400 °C.
Data set [3] is described as follows: LC-MS/MS quantitation of GnRH analogs in blood plasma of prostate cancer patients (therapeutic monitoring). Particulars: patients on goserelin therapy; conclusion from the obtained data.
Protocol: as §1, §2, §3, §4

For the compound Gonadotropin-releasing hormone [GnRH], the Half-life entry in data set [1] is “several minutes”.

For `CC(C)C[C@H](NC(=O)[C@@H](COC(C)(C)C)NC(=O)[C@H](Cc1ccc(O)cc1)NC(=O)[C@H](CO)NC(=O)[C@H](Cc1c[nH]c2ccccc12)NC(=O)[C@H](Cc1cnc[nH]1)NC(=O)[C@@H]1CCC(=O)N1)C(=O)N[C@@H](CCCNC(=N)N)C(=O)N1CCC[C@H]1C(=O)NNC(N)=O` [Goserelin, Goserelin acetate], in data set [2] (3.6 mg), the level at 8 day of a 28-day dosing cycle stood at 0.95 ng/mL and the level at 16 day of a 28-day dosing cycle was 16.2 ng/mL. In data set [2] (10.8 mg), this compound returned a level at 10 day of an 84-day dosing cycle of 7.81 ng/mL, a level at 29 day of an 84-day dosing cycle of 13.6 ng/mL and a level at 59 day of an 84-day dosing cycle of 0.55 ng/mL. Further, the “Time at which plasma concentration starts to increase” value in data set [3] is “second week”.

These data come from article PMC9695356, “Development and Validation of an LC-MS/MS Method for Simultaneous Determination of Short Peptide-Based Drugs in Human Blood Plasma” (Molecules, 2022).
